According to US6017715A (priority 1996, dated 2000):
Converted amounts (≈) assume the structure as drawn.

Tested on: Ceriodaphnia
Settings: in vivo; for LC50 value: ceriodaphnia, 48 h

Compound	LC50 value [ng/mL]	Chlorpyrifos TUs [TUs]	TUs by ELISA [TUs]	actual toxicity due to the chemical (TUs)	Diazinon TUs [TUs]	Actual Sample TUs / Sample TUs after treatment	Residual TUs (after PB Treatment) [TUs]
CCOP(=S)(OCC)Oc1nc(Cl)c(Cl)cc1Cl [Chlorpyrifos, chlorpyrifos]	0.08 (≈ 0.228 nM)	2.2	3.2	0.5			
CCOP(=S)(OCC)Oc1cc(C)nc(C(C)C)n1 [Diazinon, diazinon]	0.38 (≈ 1.25 nM)		1.9	0.9	4.5		
CCCCOCCOCCOCc1cc2c(cc1CCC)OCO2 [PB, piperonyl butoxide]						~ 1.0 TUs	1.0
